The text below walks through data of publication PMC12615863, “Improving GRPR-targeting peptides for radiotheranostics application: insights from chelator modifications and α-methyl-L tryptophan substitution” (EJNMMI Radiopharmacy and Chemistry, 2025).

One test relates to PC-3 cells. The test is described as follows: In vitro GRPR specificity assay (uptake with or without NOTA-PEG2-RM26 block). The class given is cell-based, human. To be noted: 1 nM radiopeptide, 1 h at 37 °C, block with 1 µM NOTA-PEG2-RM26, n = 3. Here is the method: After discarding the medium, the cells were washed with cold (4 °C) phosphate-buffered saline containing 1% w/v bovine serum albumin (PBS/BSA). The radiopeptides (Cf = 1 nM in 1 mL PBS/BSA) were added to all wells. A subset of wells was also treated with an excess of unlabeled GRPR-binding peptide NOTA-PEG2-RM26 (Bjäreback et al. [2025]) (Cf = 1 µM in 1 mL PBS/BSA) to block GRPR. After incubation for 1 h at 37 °C, the supernatant was removed, and the cells were washed and then collected by treating them with 1 M NaOH. The activity of the collected samples was measured with the gamma counter. This assay was performed in triplicate for each radiopeptide.

The next test has as its target T1, GRPR (Homo sapiens, UniProt P30550).
T1 construct: 3 × 10^6 PC-3 cells were seeded in 100 mm Petri dishes; host or cells: PC-3 human prostate cancer cells
On the set-up: method as in PMID 19480415. The settings on record: LigandTracer, PC-3 cells, previously published data, cited from earlier work.

T1 sequence (P30550 whole entry): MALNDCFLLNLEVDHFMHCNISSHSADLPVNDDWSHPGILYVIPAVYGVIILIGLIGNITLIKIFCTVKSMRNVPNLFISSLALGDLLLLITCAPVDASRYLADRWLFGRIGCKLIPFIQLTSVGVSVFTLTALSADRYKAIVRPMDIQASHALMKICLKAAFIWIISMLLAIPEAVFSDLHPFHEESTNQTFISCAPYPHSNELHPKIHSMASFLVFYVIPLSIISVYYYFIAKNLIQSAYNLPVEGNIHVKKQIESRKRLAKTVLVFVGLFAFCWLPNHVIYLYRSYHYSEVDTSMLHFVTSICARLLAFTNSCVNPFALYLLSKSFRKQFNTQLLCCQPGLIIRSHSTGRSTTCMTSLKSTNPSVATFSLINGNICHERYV

On to `CC(C)C[C@H](NC(=O)C[C@H](O)[C@H](CC(C)C)NC(=O)[C@H](Cc1c[nH]cn1)NC(=O)CN(C)C(=O)[C@@H](NC(=O)[C@H](C)NC(=O)[C@H](Cc1c[nH]c2ccccc12)NC(=O)[C@H](CCC(N)=O)NC(=O)[C@@H](Cc1ccccc1)NC(=O)CN1CCC(NC(=O)COCCOCCNC(=O)CN2CCN(CC(=O)O)CCN(CC(=O)O)CCN(CC(=O)O)CC2)CC1)C(C)C)C(N)=O` [[^177Lu]Lu-PKB1, metal not drawn], for which the “in vitro binding specificity” value with PC-3 cells is “GRPR-mediated activity uptake”.
Regarding “DOTAGA-PEG2-Pip-[Sar^11]RM26 [[^177Lu]Lu-AU-RM26-M2] [parent compound, AU-RM26-M2 (DOTAGA-PEG2-Pip-[Sar^11]RM26) labeled with Lu-177, previously reported by the authors]”, at GRPR (1 and 5 nM), the ka1 was 184000 M⁻¹ s⁻¹, the ka2 was 1.08e+06 M⁻¹ s⁻¹, the kd1 is reported as 3.53 × 10^–5 1/s and the kd2 is 5.94 × 10^–2 1/s. In addition, on GRPR, the “Bmax1 / Bmax2” value was 0.16.
